{
  "source": "patent US8846570B2",
  "about": "“Herbicidal compositions comprising 4-amino-3-chloro-5-fluoro-6-(4-chloro-2-fluoro-3-methoxyphenyl)pyridine-2-carboxylic acid or a derivative thereof and microtubule inhibiting herbicides” (Dow AgroSciences LLC, priority 2012, dated 2014)",
  "key": {"[1]": {"test_system": "Ipomoea hederacea (L.) Jacq. (IPOHE)", "assay": "Pre-emergence soil-applied, greenhouse: visual weed control", "format": "in vivo", "conditions": "for Visual Weed Control (%) - 33 DAA IPOHE Obs: soil-applied pre-emergence", "from_the_text": "Seeds or nutlets of the desired test plant species were planted in a soil matrix prepared by mixing a loam soil (e.g., 32 percent silt, 23 percent clay, and 45 percent sand, with a pH of about 6.5 and an organic matter content of about 1.9 percent) and calcareous grit in an 80 to 20 ratio. The soil matrix was contained in plastic pots with a volume of 1 quart and a surface area of 83.6 square centimeters (cm^2).\nForms of compound A were applied on an acid equivalent basis.\nFor treatments comprised of formulated compounds, measured amounts of compounds were placed individually in 25 mL glass vials and diluted in a volume of 1.25% (v/v) Agri-Dex® crop oil concentrate (COC) to obtain 12× stock solutions. […] Application solutions were prepared by adding an appropriate amount of each stock solution (e.g., 1 mL) and diluted to the appropriate final concentrations with the addition of 10 mL of an aqueous mixture of 1.25% (v/v) COC so that the final spray solutions contained 1.25% (v/v) COC.\nFor treatments comprised of formulated and technical compounds, weighed amounts of the technical materials were placed individually in 25 mL glass vials and dissolved in a volume of 97:3 (v/v) acetone/DMSO to obtain 12× stock solutions, and measured amounts of the formulated compounds were placed individually in 25 mL glass vials and diluted in a volume of 1.5% (v/v) COC or water to obtain 12× stock solutions. […] Application solutions were prepared by adding an appropriate amount of each stock solution (e.g., 1 mL) and diluted to the appropriate final concentrations with the addition of an appropriate amount of an aqueous mixture of 1.5% (v/v) COC so that the final spray solutions contained 1.25% (v/v) COC. As required, additional water and/or 97:3 (v/v) acetone/DMSO was added to individual application solutions so that the final acetone and DMSO concentrations of the application solutions being compared were 8.1% and 0.25%, respectively.\nAll stock solutions and applications solutions were visually inspected for compound compatibility prior to application. Spray solutions were applied to the soil with an overhead Mandel track sprayer equipped with a 8002E nozzles calibrated to deliver 187 L/ha over an application area of 0.503 m^2 at a spray height of 18 inches (46 cm) above average pot height. Control pots were sprayed in the same manner with the solvent blank.\nThe treated and control pots were placed in a greenhouse and top watered as needed. […] The pots were maintained in a greenhouse with an approximate 14 hr photoperiod which was maintained at about 29° C. during the day and 26° C. during the night. Nutrients (Peters® Excel 15-5-15 5-Ca 2-Mg) were applied in the irrigation solution as needed and water was added on a regular basis. Supplemental lighting was provided with overhead metal halide 1000-Watt lamps as necessary. After approximately 4 weeks, the condition of the test plants as compared with that of the untreated plants was determined visually and scored on a scale of 0 to 100 percent where 0 corresponds to no injury or growth inhibition and 100 corresponds to complete kill.\n(§1) Colby's equation was used to determine the herbicidal effects expected from the mixtures (Colby, S. R. 1967. Calculation of the synergistic and antagonistic response of herbicide combinations. Weeds 15:20-22.).\n(§2) The following equation was used to calculate the expected activity of mixtures containing two active ingredients, A and B: Expected=A+B−(A×B/100)"}, "[2]": {"test_system": "Leptochloa chinensis (L.) Nees (LEFCH)", "assay": "Postemergence foliar-applied, direct seeded rice, greenhouse: visual weed control", "format": "in vivo", "conditions": "19 DAA", "from_the_text": "Seeds or nutlets of the desired test plant species were planted in a soil matrix prepared by mixing a loam or sandy loam soil (e.g., 28.6 percent silt, 18.8 percent clay, and 52.6 percent sand, with a pH of about 5.8 and an organic matter content of about 1.8 percent) and calcareous grit in an 80 to 20 ratio. The soil matrix was contained in plastic pots with a volume of 1 quart and a surface area of 83.6 cm^2. When required to ensure good germination and healthy plants, a fungicide treatment and/or other chemical or physical treatment was applied. The plants were grown for 8-22 days in a greenhouse with an approximate 14 h photoperiod which was maintained at about 29° C. during the day and 26° C. during the night. Nutrients (Peters Excel® 15-5-15 5-Ca 2-Mg and iron chelate) were applied in the irrigation solution as needed and water was added on a regular basis. Supplemental lighting was provided with overhead metal halide 1000-Watt lamps as necessary. The plants were employed for testing when they reached the first through fourth true leaf stage.\nTreatments consisted of the acid or esters of 4-amino-3-chloro-5-fluoro-6-(4-chloro-2-fluoro-3-methoxy-phenyl)pyridine-2-carboxylic acid (Compound A), each formulated as an SC (suspension concentrate), and various herbicidal components alone and in combination. Forms of compound A were applied on an acid equivalent basis.\nTreatment requirements were calculated based upon the rates being tested, the concentration of active ingredient or acid equivalent in the formulation, and a 12 mL application volume at a rate of 187 L/ha.\nFor treatments comprised of formulated compounds, measured amounts of compounds were placed individually in 25 mL glass vials and diluted in a volume of 1.25% (v/v) Agri-Dex® crop oil concentrated to obtain 12× stock solutions. […] Application solutions were prepared by adding an appropriate amount of each stock solution (e.g., 1 mL) and diluted to the appropriate final concentrations with the addition of 10 mL of an aqueous mixture of 1.25% (v/v) crop oil concentrate so that the final spray solutions contained 1.25+/−0.05% (v/v) crop oil concentrate.\nAs required, additional water and/or 97:3 v/v acetone/DMSO was added to individual application solutions so that the final acetone and DMSO concentrations of the application solutions being compared were 8.1% and 0.25%, respectively.\nAll stock solutions and applications solutions were visually inspected for compound compatibility prior to application. Spray solutions were applied to the plant material with an overhead Mandel track sprayer equipped with a 8002E nozzles calibrated to deliver 187 L/ha over an application area of 0.503 m^2 at a spray height of 18 to 20 inches (46 to 50 cm) above average plant canopy height. Control plants were sprayed in the same manner with the solvent blank.\nThe treated plants and control plants were placed in a greenhouse as described above and watered by sub-irrigation to prevent wash-off of the test compounds. After approximately 3 weeks, the condition of the test plants as compared with that of the untreated plants was determined visually and scored on a scale of 0 to 100 percent where 0 corresponds to no injury or growth inhibition and 100 corresponds to complete kill.\nas §1, §2"}},
  "data": [
    {"smiles": "COc1c(Cl)ccc(-c2nc(C(=O)OCc3ccccc3)c(Cl)c(N)c2F)c1F", "note": "[Compound A Benzyl Ester, benzyl ester of 4-amino-3-chloro-5-fluoro-6-(4-chloro-2-fluoro-3-methoxy-phenyl)pyridine-2-carboxylic acid]", "values": [
      {"measurement": "Visual Weed Control (%) Obs", "setting": "[1]; 27 DAA, 16 g ae/ha", "value": 20, "unit": "%"},
      {"measurement": "Visual Weed Control (%) Obs", "setting": "[1]; 27 DAA, 32 g ae/ha", "value": 40, "unit": "%"},
      {"measurement": "Visual Weed Control (%) Obs", "setting": "[1]; 33 DAA, 16 g ae/ha", "value": 0, "unit": "%"},
      {"measurement": "Visual Weed Control (%) Obs", "setting": "[1]; 33 DAA, 32 g ae/ha", "value": 5, "unit": "%"},
      {"measurement": "Visual Weed Control (%) - 33 DAA IPOHE Obs", "setting": "[1]; Compound A Benzyl Ester 16 g ae/ha alone, 33 DAA", "value": 0, "unit": "%"},
      {"measurement": "Visual Weed Control (%) - 33 DAA IPOHE Obs", "setting": "[1]; Compound A Benzyl Ester 32 g ae/ha alone, 33 DAA", "value": 5, "unit": "%"},
      {"measurement": "Visual Weed Control (%) Obs", "setting": "[2]; 4.38 g ae/ha", "value": 0, "unit": "%"},
      {"measurement": "Visual Weed Control (%) Obs", "setting": "[2]; 8.75 g ae/ha", "value": 25, "unit": "%"},
      {"measurement": "Visual Weed Control (%) Obs", "setting": "[2]; 17.5 g ae/ha", "value": 30, "unit": "%"}
    ]},
    {"smiles": "CSC(=O)c1c(C(F)F)nc(C(F)(F)F)c(C(=O)SC)c1CC(C)C", "note": "[Dithiopyr, S,S′-dimethyl-2-(difluoromethyl)-4-(2-methylpropyl)-6-(trifluoromethyl)-3,5-pyridinedicarbothioate]", "values": [
      {"measurement": "Visual Weed Control (%) Obs", "setting": "[1]; 27 DAA, 140 g ai/ha", "value": 3, "unit": "%"},
      {"measurement": "Visual Weed Control (%) Obs", "setting": "[1]; 27 DAA, 280 g ai/ha", "value": 20, "unit": "%"}
    ]},
    {"smiles": "CCC(CC)Nc1c([N+](=O)[O-])cc(C)c(C)c1[N+](=O)[O-]", "note": "[Pendimethalin, N-(1-ethylpropyl)-3,4-dimethyl-2,6-dinitrobenzenamine, reference compound]", "values": [
      {"measurement": "Visual Weed Control (%) Obs", "setting": "[2]; 140 g ai/ha", "value": 0, "unit": "%"},
      {"measurement": "Visual Weed Control (%) Obs", "setting": "[2]; 280 g ai/ha", "value": 20, "unit": "%"},
      {"measurement": "Visual Weed Control (%) Obs", "setting": "[2]; 560 g ai/ha", "value": 80, "unit": "%"}
    ]}
  ]
}
